In patent publication US20240049706A1, “COMPOSITIONS AND METHODS FOR CONTROLLING INSECTS” (priority 2020, published 2024):

Key:
[1] = Loading (encapsulation) efficacy of essential oils into AgriCell, UV-Vis after ethanol extraction; assay type: physicochemical; details: EO encapsulated into AgriCell; original concentration of EO 200 mg/mL
Procedure: After […] are purified, the concentrated […] paste or dry lyophilized powder is loaded with EOs. If dry, the […] are first homogenized into a finer powder through mechanical homogenization. A stock solution from each EO is prepared in ethanol at 100 mg/mL-200 mg/mL. Lyophilized […] would then be suspended in a solution with the EO solution at a ratio of 1 g of dry […] to 10 mL of EO solution. Once resuspended, the ethanol is allowed to evaporate overnight, leaving behind EO encapsulated […] in the process. After this overnight period, encapsulated […] are removed from the beaker, and the EO-encapsulated […] powder is mechanically homogenized. This encapsulated product is ready for resuspension in its appropriate medium.

[2] = 20 mg/mL; for percentage existing / remaining (not damaged) after autoxidation: 168 h; for percentage degraded by autoxidation: 7 days
Source text: Results were reported as concentration of EO as function of time for each stability condition.

[3] = 7 days, 20 mg/mL
Source text: One replicate of each EO per treatment was collected daily and tested for EO content. Results were reported as concentration of EO as function of time for each stability condition.

| encapsulation efficacy [1] | percentage of degradation (thermal) [3] | Compound | percentage existing / remaining (not damaged) after autoxidation [2] | percentage degraded by autoxidation [2] |
| --- | --- | --- | --- | --- |
| 95.5% | 82.7% | C=CCc1ccc(O)c(OC)c1 [free eugenol, Eugenol] | 17.3% | 82.7% |
| 91.8% | 79.1% | Cc1ccc(C(C)C)c(O)c1 [free thymol, thymol] | 44.2% | 55.8% |
